Assay results taken from US11840686B2, “Modulation of prekallikrein (PKK) expression” (Ionis Pharmaceuticals, Inc., priority 2013, dated 2023).
Strand notation (5' to 3'): a small letter for the sugar, then the base; units joined by * are phosphorothioate-linked, units joined directly phosphodiester-linked; [ ] holds rarer units or linkages, { } end groups; capitals alone tell only the bases. e = 2'-O-(2-methoxyethyl) (MOE); [5mC] = 5-methylcytosine; d = 2'-deoxy (DNA)

Test system: human PKK mRNA
Assay: Antisense inhibition of human PKK mRNA in HepaRG cells, 3,000 nM (Example 1)
Format: cell-based
Details: HepaRG cells, electroporation with 3,000 nM antisense oligonucleotide, approx. 24 hours, PKK mRNA by RT-PCR (RTS3454), relative to untreated control cells
How it was run: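 Values give percent PKK mRNA reduction relative to untreated controls, normalised to RIBOGREEN total RNA. mRNA was quantified by real-time PCR (RTS3454) about 24 h after electroporation. Each 20-mer MOE gapmer was delivered at 3,000 nM into 20,000 HepaRG cells per well.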

| Substance | % inhibition (Table 3) [%] | % inhibition (Table 4) [%] |
| --- | --- | --- |
| 531120 (antisense eA*eA*eA*eT*eA*dA*dA*dA*dG*d[5mC]*dA*d[5mC]*dT*d[5mC]*dA*eG*eA*e[5mC]*eT*eG) [compound 531120] | 0 | – |
| 531122 (antisense eT*eA*eA*e[5mC]*eA*dA*dA*dA*dA*dT*dG*d[5mC]*d[5mC]*dT*dT*eG*eT*eG*e[5mC]*e[5mC]) [compound 531122] | 33 | – |
| 531124 (antisense eG*eT*eA*e[5mC]*eT*dA*dA*dA*d[5mC]*dA*dT*d[5mC]*d[5mC]*dT*dA*eA*eG*eT*eG*eA) [compound 531124] | 2 | – |
| 531125 (antisense eA*e[5mC]*eT*e[5mC]*eG*d[5mC]*d[5mC]*dT*dT*dT*dG*dT*dG*dA*d[5mC]*eT*e[5mC]*eG*eA*eT) [compound 531125] | 23 | – |
| 531126 (antisense eT*eT*eT*eT*eG*dA*dA*dT*d[5mC]*dT*dT*d[5mC]*dA*dT*dT*e[5mC]*eA*eA*eA*eG) [compound 531126] | 0 | – |
| 531127 (antisense e[5mC]*eA*eG*eA*eG*d[5mC]*d[5mC]*dT*dT*dG*dA*dT*d[5mC]*dA*dG*eA*eA*eT*eA*eA) [compound 531127] | 12 | – |
| 531128 (antisense eA*eA*eG*eT*eT*d[5mC]*d[5mC]*dA*d[5mC]*d[5mC]*dT*dT*d[5mC]*dT*dA*eA*e[5mC]*eT*eG*eG) [compound 531128] | 18 | – |
| 531129 (antisense eA*eG*e[5mC]*eA*eG*d[5mC]*dT*d[5mC]*dA*d[5mC]*dA*d[5mC]*d[5mC]*d[5mC]*dA*eA*eA*eA*eA*eG) [compound 531129] | 0 | – |
| 531130 (antisense eT*eT*e[5mC]*eT*eG*dT*dG*dT*d[5mC]*dA*dA*dT*dT*dA*dT*eA*eA*eA*e[5mC]*eA) [compound 531130] | 0 | – |
| 531131 (antisense eT*eA*eG*eA*eA*dA*dG*dA*dG*dT*dA*dA*dG*d[5mC]*d[5mC]*eT*eT*e[5mC]*eA*e[5mC]) [compound 531131] | 0 | – |
| 531132 (antisense eA*eG*eT*eG*eA*dG*dG*dT*dT*dA*d[5mC]*dT*d[5mC]*dA*d[5mC]*e[5mC]*eA*eG*eA*eG) [compound 531132] | 0 | – |
| 531133 (antisense eT*eT*eT*eT*eG*dT*dT*dG*dT*dG*d[5mC]*dA*dG*dA*d[5mC]*eT*eG*eA*eA*eA) [compound 531133] | 19 | – |
| 531134 (antisense eT*eT*eA*e[5mC]*e[5mC]*d[5mC]*dA*dT*d[5mC]*dA*dA*dA*dG*d[5mC]*dA*eG*eT*eG*eG*eG) [compound 531134] | 6 | – |
| 531135 (antisense eA*eA*eT*eG*eT*dT*dG*dT*dG*dA*dA*dT*dA*d[5mC]*d[5mC]*eA*eT*e[5mC]*e[5mC]*e[5mC]) [compound 531135] | 16 | – |
| 531136 (antisense eT*eA*eA*e[5mC]*eA*dT*dT*dT*d[5mC]*dT*dA*dT*dG*dG*dG*e[5mC]*e[5mC]*eT*eG*eA) [compound 531136] | 6 | – |
| 531137 (antisense eT*eG*eT*e[5mC]*eT*dA*d[5mC]*dT*dA*dT*dT*dT*dG*dA*d[5mC]*e[5mC]*eA*eA*eT*eA) [compound 531137] | 19 | – |
| 531138 (antisense eT*eT*eT*eA*eA*dA*dT*dG*dT*dG*dT*d[5mC]*dA*d[5mC]*dT*eT*eA*eA*eT*e[5mC]) [compound 531138] | 0 | – |
| 531139 (antisense eT*e[5mC]*eA*e[5mC]*eT*dA*dA*dA*dA*d[5mC]*dA*dA*dA*dA*dA*eT*eA*e[5mC]*eT*eT) [compound 531139] | 0 | – |
| 531140 (antisense eT*e[5mC]*eT*eT*e[5mC]*d[5mC]*dA*dG*dG*d[5mC]*d[5mC]*dA*dA*d[5mC]*d[5mC]*eA*e[5mC]*e[5mC]*eT*eT) [compound 531140] | 22 | – |
| 531141 (antisense eT*eG*e[5mC]*eA*eA*dG*dG*d[5mC]*dA*dT*dG*dT*dG*dT*dG*e[5mC]*eA*e[5mC]*eA*eA) [compound 531141] | 47 | – |
| 531142 (antisense eT*eG*eT*eT*eT*dA*dA*dA*dA*dT*dA*dT*d[5mC]*dT*d[5mC]*eT*eA*eT*eA*e[5mC]) [compound 531142] | 8 | – |
| 531143 (antisense e[5mC]*eA*eT*eG*eG*dA*dA*dA*dA*dA*dT*dT*dA*dA*dG*e[5mC]*eT*e[5mC]*eA*eT) [compound 531143] | 0 | – |
| 531144 (antisense eT*eG*eA*eA*eG*dA*dT*dT*d[5mC]*dT*dA*dT*dT*dT*dA*eA*e[5mC]*eA*eA*eA) [compound 531144] | 0 | – |
| 531145 (antisense eG*e[5mC]*e[5mC]*eT*eA*dG*dG*dA*dG*dA*dG*dA*dA*dA*dA*eA*eT*eA*eA*eA) [compound 531145] | 0 | – |
| 531146 (antisense e[5mC]*e[5mC]*eA*eG*eT*dG*dT*dA*dA*dT*dT*d[5mC]*dA*dA*dA*eG*eG*eA*eG*e[5mC]) [compound 531146] | 40 | – |

| Substance | % inhibition (Table 3) [%] | % inhibition (Table 4) [%] |
| --- | --- | --- |
| 531147 (antisense e[5mC]*e[5mC]*eA*eT*eT*dA*dT*dT*dT*d[5mC]*d[5mC]*dA*dT*d[5mC]*dA*e[5mC]*e[5mC]*eT*eG*e[5mC]) [compound 531147] | 18 | – |
| 531148 (antisense eT*eA*e[5mC]*e[5mC]*e[5mC]*dA*dA*dA*dT*dT*dA*dT*dA*d[5mC]*d[5mC]*eT*eG*eG*eA*eA) [compound 531148] | 8 | – |
| 531149 (antisense eA*eG*eA*eG*eG*dT*dA*dA*dA*dG*d[5mC]*dA*dA*d[5mC]*dT*eT*eG*e[5mC]*e[5mC]*e[5mC]) [compound 531149] | 45 | – |
| 531150 (antisense eT*e[5mC]*e[5mC]*eT*eT*dA*dA*dT*dA*dG*dT*d[5mC]*dA*dT*dA*eG*e[5mC]*eA*eG*eG) [compound 531150] | 48 | – |
| 531151 (antisense eT*e[5mC]*eA*e[5mC]*e[5mC]*dA*d[5mC]*d[5mC]*dA*dT*dT*dT*dT*dT*d[5mC]*eA*e[5mC]*eA*eT*eG) [compound 531151] | 44 | – |
| 531152 (antisense eG*eT*eT*eA*eT*dG*dG*dA*dT*dA*dT*dA*dG*dA*d[5mC]*eT*eT*eT*eA*eA) [compound 531152] | 0 | – |
| 531153 (antisense e[5mC]*eT*eA*eG*eA*dA*dG*d[5mC]*dA*dA*dT*dA*dT*dT*dT*eA*eA*eA*eG*e[5mC]) [compound 531153] | 0 | – |
| 531154 (antisense eA*eT*eG*eA*eA*dG*dT*dA*dA*dG*dA*dT*dG*d[5mC]*dT*eT*eA*eA*eA*eA) [compound 531154] | 16 | – |
| 531155 (antisense e[5mC]*eT*eT*e[5mC]*eT*dT*dG*dT*d[5mC]*dT*d[5mC]*dA*dG*dA*dT*eT*eA*e[5mC]*e[5mC]*eA) [compound 531155] | 79 | – |
| 531156 (antisense eT*e[5mC]*eT*eG*eA*dA*dA*dA*dG*d[5mC]*d[5mC]*d[5mC]*dT*d[5mC]*d[5mC]*eG*eA*eG*e[5mC]*eT) [compound 531156] | 0 | – |
| 531157 (antisense eA*eA*eG*eT*eG*dA*dA*dT*d[5mC]*dA*dG*dA*dG*d[5mC]*dA*eG*eT*eG*eT*eA) [compound 531157] | 46 | – |
| 531158 (antisense eA*e[5mC]*e[5mC]*eT*eT*dA*d[5mC]*dA*dA*dG*d[5mC]*dA*dT*d[5mC]*dT*eT*eT*eT*e[5mC]*e[5mC]) [compound 531158] | 41 | – |
| 531159 (antisense eA*eT*eT*eT*eG*dT*dT*dA*dA*dA*dA*dG*dT*dT*dG*e[5mC]*eT*eT*eA*eT) [compound 531159] | 0 | – |
| 531160 (antisense eT*eG*eA*eT*eA*dT*d[5mC]*dA*dT*d[5mC]*dA*dT*d[5mC]*d[5mC]*d[5mC]*eA*eA*eT*eG*eA) [compound 531160] | 13 | – |
| 531161 (antisense e[5mC]*eA*eG*eA*e[5mC]*dA*d[5mC]*d[5mC]*dT*dT*d[5mC]*dT*dT*d[5mC]*dA*e[5mC]*eA*eA*eG*eG) [compound 531161] | – | 40 |
| 531162 (antisense eA*eA*eT*eT*eT*d[5mC]*d[5mC]*d[5mC]*dA*dG*dA*dT*dG*dT*dA*eT*eT*eA*eG*eT) [compound 531162] | – | 43 |
| 531163 (antisense eT*e[5mC]*eA*eG*e[5mC]*dA*dG*dA*dA*dA*dT*d[5mC]*dA*dT*dG*eT*eA*eG*eG*e[5mC]) [compound 531163] | – | 60 |
| 531164 (antisense eT*eT*eA*eA*eA*dT*dA*dT*dA*dA*dA*dG*dA*dG*dA*eT*e[5mC]*e[5mC]*eT*e[5mC]) [compound 531164] | – | 38 |
| 531165 (antisense eG*eT*eA*eA*eT*dA*dA*dA*dA*dG*dG*dA*dA*dT*dG*eA*eT*eA*eA*eA) [compound 531165] | – | 0 |
| 531166 (antisense eA*eG*eA*e[5mC]*eA*dG*dT*dA*dA*dA*d[5mC]*dA*dA*dA*dA*eT*e[5mC]*eA*eG*eG) [compound 531166] | – | 12 |
| 531167 (antisense e[5mC]*eA*eA*eG*eA*dA*dA*d[5mC]*d[5mC]*dA*d[5mC]*d[5mC]*dA*dA*dA*eG*eG*eA*eA*eG) [compound 531167] | – | 37 |
| 531168 (antisense eA*e[5mC]*e[5mC]*e[5mC]*e[5mC]*dA*dA*d[5mC]*dA*dG*dA*d[5mC]*dA*dG*d[5mC]*e[5mC]*e[5mC]*eA*e[5mC]*e[5mC]) [compound 531168] | – | 55 |
| 531169 (antisense eT*eG*eG*eG*e[5mC]*dT*d[5mC]*dA*d[5mC]*d[5mC]*d[5mC]*d[5mC]*dA*dG*dT*eG*eG*eA*e[5mC]*e[5mC]) [compound 531169] | – | 54 |
| 531170 (antisense eG*e[5mC]*e[5mC]*eT*eG*dG*d[5mC]*d[5mC]*d[5mC]*d[5mC]*d[5mC]*dA*dA*dG*dA*e[5mC]*eT*e[5mC]*eT*eA) [compound 531170] | – | 54 |
